From PMC11625940, “An Improved Test Method for Assaying the Inhibition of Bioflavonoids on Xanthine Oxidase Activity in vitro” (ChemistryOpen, 2024)
pIC50: −log10 of the molar value.

Tests used:
[1] = target: T1, Xanthine oxidase (XOD); experiment: UV assay of uric acid formation at […] nm, test method A (inhibitor preincubated with enzyme, started by xanthine); type: biochemical; details: xanthine substrate, sodium pyrophosphate buffer pH 7.5, 37 °C, other methods (B; C, inhibitor added to the running reaction with superoxide) also printed in the row, read-out: IC50 ^[a]/μmol L^-1
T1 construct: gene XDH; described in the introduction as a 290 kDa homodimer of mammals; the high specific activity could also fit a microbial enzyme

[2] = target: T1, Xanthine oxidase (XOD); experiment: UV assay of uric acid formation at […] nm, test method C (inhibitor added to running reaction after […] min, superoxide present); type: biochemical; details: xanthine substrate, sodium pyrophosphate buffer pH 7.5, 37 °C, unreliable: compound may be oxidised to myricetin by superoxide, no IC50 reached in test methods A and B

## O=c1c(O)c(-c2cc(O)c(O)c(O)c2)oc2cc(O)cc(O)c12 [Myricetin]
[1]
  pIC50: 5.30

## O=c1cc(-c2ccc(O)c(O)c2)oc2cc(O)cc(O)c12 [Luteolin]
[1]
  pIC50: 5.36

## O=C1c2c(O)cc(O)cc2O[C@H](c2cc(O)c(O)c(O)c2)[C@H]1O [Dihydromyricetin]
[2]
  IC50 ^[c]/μmol L^-1: 20.96 µM
